Test results reported in PubChem BioAssay (NCI).
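Values below derive from 48-hour exposures of cells grown in 96-well plates, with endpoints linearly interpolated between the two concentrations bracketing the appropriate inhibition level. Abbreviation: GI50, concentration required for 50% inhibition of growth. Definition used: TGI = concentration required for complete inhibition of growth.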

Assays:
Assay in all cases: NCI-60 cell line screen, 48 h
BT-549 breast = test system: BT-549 breast
HOP-92 NSCLC = test system: HOP-92 NSCLC
HS 578T breast = test system: HS 578T breast
NCI-H23 lung = test system: NCI-H23 lung
NCI-H522 lung = test system: NCI-H522 lung
PC-3 prostate = test system: PC-3 prostate
SF-539 CNS = test system: SF-539 CNS
SK-MEL-5 melanoma = test system: SK-MEL-5 melanoma
SNB-75 CNS = test system: SNB-75 CNS
U251 CNS = test system: U251 CNS

SMILES | GI50 (BT-549 breast) | TGI (BT-549 breast) | GI50 (HOP-92 NSCLC) | TGI (HOP-92 NSCLC) | GI50 (HS 578T breast) | TGI (HS 578T breast) | GI50 (NCI-H23 lung) | TGI (NCI-H23 lung) | GI50 (NCI-H522 lung) | TGI (NCI-H522 lung) | GI50 (PC-3 prostate) | TGI (PC-3 prostate) | GI50 (SF-539 CNS) | TGI (SF-539 CNS) | GI50 (SK-MEL-5 melanoma) | TGI (SK-MEL-5 melanoma) | GI50 (SNB-75 CNS) | TGI (SNB-75 CNS) | GI50 (U251 CNS) | TGI (U251 CNS)
CCOC(=O)[C@@H](C)C[C@H](Cc1ccccc1)NC(=O)c1csc([C@@H](C[C@H](C(C)C)N(C)C(=O)[C@@H](NC(=O)[C@H]2CCCCN2C)C(C)(C)CC)OC(C)=O)n1 | < 0.00167 µM | 0.107 µM | 0.0019 µM | 5.69 µM | < 0.00167 µM | 2.17 µM | 0.00251 µM | > 16.7 µM | < 0.00167 µM | 0.0397 µM | < 0.00167 µM | > 16.7 µM | 0.00226 µM | 0.00791 µM | < 0.00167 µM | 0.0294 µM | < 0.00167 µM | 13.9 µM | < 0.00167 µM | > 7.64 µM
Oc1ccc(Cl)cc1C(c1cc(Cl)ccc1O)C(Cl)(Cl)Cl | 1.82 µM | 4.71 µM | 2.28 µM | 5.44 µM | 1.81 µM | 4.45 µM | 1.73 µM | 3.96 µM | 1.87 µM | 5.44 µM | 1.79 µM | 4.76 µM | 1.69 µM | 3.67 µM | 1.58 µM | 3.05 µM | 2.17 µM | 9.57 µM | 1.71 µM | 3.45 µM
O=C1CC2OCC=C3CN4CCC56c7ccccc7N1C5C2C3CC46O (stereo not given) | – | > 100 µM | – | > 100 µM | – | > 100 µM | – | > 100 µM | – | > 100 µM | – | > 100 µM | – | > 100 µM | – | > 100 µM | – | > 100 µM | – | > 100 µM
CCOC(=O)c1c(-c2ccccc2)[n+](=O)c2cc(Cl)c(Cl)cc2n1[O-] | 17.3 µM | 33.5 µM | 2.09 µM | 4.6 µM | 20.1 µM | 49.9 µM | 10.1 µM | 25.8 µM | 14.2 µM | > 100 µM | 0.769 µM | 62.1 µM | 15.5 µM | 32 µM | 14.8 µM | 28.8 µM | 8.7 µM | 30.2 µM | 2.33 µM | 6.01 µM
C=C1C(=O)O[C@H]2[C@H]1CC/C(COC(=O)c1cc(OC)c(OC)c(OC)c1)=C\CC[C@@]1(C)O[C@@H]21 | 1.06 µM | 2.35 µM | 0.523 µM | 2.1 µM | 3.68 µM | 32.7 µM | 1.7 µM | 3.95 µM | 0.589 µM | 2.25 µM | 1.8 µM | 4.49 µM | 0.895 µM | 2.24 µM | 1.68 µM | 3.05 µM | 7.92 µM | 21.6 µM | 1.6 µM | 3.47 µM
COc1cc(CNCCCCCCN2C(=O)c3cccc4cccc(c34)C2=O)ccc1O | 14.5 µM | 27.9 µM | 2.46 µM | 17.5 µM | 10 µM | 37.4 µM | 10.8 µM | 25.2 µM | 2.32 µM | 7.97 µM | 4.42 µM | 18.7 µM | 1.82 µM | 3.83 µM | 2 µM | 5.92 µM | 10.5 µM | 22.4 µM | 4.51 µM | 17.3 µM
CC(=O)Nc1ccc(C(=O)CCl)cc1 | 4.94 µM | 17.1 µM | 2.12 µM | 4.95 µM | 17.7 µM | 80.5 µM | 11.4 µM | 31.6 µM | 2.06 µM | 4.17 µM | 10 µM | 22.3 µM | 3.63 µM | 14.7 µM | 15.9 µM | 31 µM | 3.46 µM | 16 µM | 12.4 µM | 25.1 µM
NS(=O)(=O)c1ccc(Nc2cc(-c3ccc(O)c(F)c3)[nH]n2)cc1 | 8.66 µM | > 25 µM | > 18.3 µM | > 25 µM | 7.28 µM | > 25 µM | > 25 µM | > 25 µM | 13.9 µM | > 25 µM | > 25 µM | > 25 µM | 13.5 µM | > 25 µM | 10.7 µM | > 25 µM | > 25 µM | > 25 µM | 16.4 µM | > 25 µM
COc1cccc2c1-c1nc(N)c3c(OC)cccc3c1C2=O | – | > 100 µM | – | > 100 µM | – | 52.3 µM | – | > 100 µM | – | > 100 µM | – | > 100 µM | – | > 100 µM | – | > 100 µM | – | 46.4 µM | – | > 100 µM
O=C(Nc1ccc(Oc2ccc(F)cc2)cc1)[C@@H]1C[C@@H](Cc2ccc(F)cc2)CN1C(=O)Cn1ccnn1 | 11.5 µM | 30 µM | 7.54 µM | 31.3 µM | 11.5 µM | 51.9 µM | 12.1 µM | 35.5 µM | 5.01 µM | 19.3 µM | 4.42 µM | > 37.8 µM | 10.6 µM | 26.6 µM | 9.12 µM | 22.6 µM | 4.03 µM | 31.8 µM | 4.79 µM | 22.2 µM
